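Protocol summary: plate cells (96-well), add compound at 5 concentrations, incubate 48 h, interpolate endpoints linearly. GI50 is the concentration that inhibits growth by half.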 Active and inactive are the calls of the source. No stated cut-off is given here; in the data, active = GI50 up to about 1.1 µM and inactive = higher.
What was measured:
Experiment in all cases: DTP human tumour cell line panel, 48 h
HOP-92 = tested on: HOP-92
RXF 393 = tested on: RXF 393
786-0 = tested on: 786-0
HL-60 = tested on: HL-60
CCRF-CEM = tested on: CCRF-CEM
ACHN = tested on: ACHN
SF-268 = tested on: SF-268
UACC-62 = tested on: UACC-62
RPMI-8226 = tested on: RPMI-8226
EKVX = tested on: EKVX
HCT-116 = tested on: HCT-116
COLO 205 = tested on: COLO 205
KM12 = tested on: KM12
SR = tested on: SR
A549 = tested on: A549
Malme-3M = tested on: Malme-3M
NCI-H23 = tested on: NCI-H23
HOP-62 = tested on: HOP-62
UO-31 = tested on: UO-31
NCI-H226 = tested on: NCI-H226

Compound	GI50 (HOP-92)	GI50 (RXF 393)	GI50 (786-0)	GI50 (HL-60)	GI50 (CCRF-CEM)	GI50 (ACHN)	GI50 (SF-268)	GI50 (UACC-62)	GI50 (RPMI-8226)	GI50 (EKVX)	GI50 (HCT-116)	GI50 (COLO 205)	GI50 (KM12)	GI50 (SR)	GI50 (A549)	GI50 (Malme-3M)	GI50 (NCI-H23)	GI50 (HOP-62)	GI50 (UO-31)	GI50 (NCI-H226)
CSc1nc2nc(C)c(C)nc2c(=O)[nH]1	> 100 µM (inactive)	> 100 µM (inactive)	> 100 µM (inactive)	> 100 µM (inactive)	> 100 µM (inactive)	> 100 µM (inactive)	> 100 µM (inactive)	> 100 µM (inactive)	> 100 µM (inactive)	> 100 µM (inactive)	> 100 µM (inactive)	> 100 µM (inactive)	> 100 µM (inactive)	> 100 µM (inactive)	> 100 µM (inactive)	> 100 µM (inactive)	> 100 µM (inactive)	> 100 µM (inactive)	> 100 µM (inactive)	–
CNc1ccc2c(c1)[C@@]1(C)c3ccccc3[C@@H](C2)N1C	27.1 µM (inactive)	20.3 µM (inactive)	17.4 µM (inactive)	14.7 µM (inactive)	20.4 µM (inactive)	30.6 µM (inactive)	44.4 µM (inactive)	16.4 µM (inactive)	15.7 µM (inactive)	32.7 µM (inactive)	16.1 µM (inactive)	–	22.4 µM (inactive)	22.6 µM (inactive)	30.2 µM (inactive)	28 µM (inactive)	22.6 µM (inactive)	42.1 µM (inactive)	28.1 µM (inactive)	–
Cc1ccc(S(=O)(=O)NC(=O)NC(CCCCNC(=N)N)C(=O)O)cc1 (stereo not drawn)	> 100 µM (inactive)	> 100 µM (inactive)	> 100 µM (inactive)	> 100 µM (inactive)	> 100 µM (inactive)	> 100 µM (inactive)	> 100 µM (inactive)	> 100 µM (inactive)	> 100 µM (inactive)	–	> 100 µM (inactive)	> 100 µM (inactive)	> 100 µM (inactive)	> 100 µM (inactive)	> 100 µM (inactive)	> 100 µM (inactive)	> 100 µM (inactive)	> 100 µM (inactive)	> 100 µM (inactive)	–
Cc1nc2n(c1/C=C1/C(=O)Nc3cccc(Cl)c31)CCS2	20.7 µM (inactive)	20.7 µM (inactive)	40 µM (inactive)	> 100 µM (inactive)	50.9 µM (inactive)	31 µM (inactive)	19.5 µM (inactive)	33.6 µM (inactive)	> 100 µM (inactive)	31.8 µM (inactive)	42.2 µM (inactive)	> 100 µM (inactive)	> 100 µM (inactive)	> 100 µM (inactive)	56.1 µM (inactive)	50.2 µM (inactive)	22 µM (inactive)	24 µM (inactive)	29.8 µM (inactive)	–
CC(C)=CCN1c2ccc(Cl)cc2NC(=O)CC1C (stereo not drawn)	14.1 µM (inactive)	24.9 µM (inactive)	18.2 µM (inactive)	13 µM (inactive)	38.6 µM (inactive)	19.1 µM (inactive)	34.7 µM (inactive)	–	22.1 µM (inactive)	25.8 µM (inactive)	18.4 µM (inactive)	21.6 µM (inactive)	28.3 µM (inactive)	5.45 µM (inactive)	27.2 µM (inactive)	20.3 µM (inactive)	22.6 µM (inactive)	23.5 µM (inactive)	31.6 µM (inactive)	7.94 µM (inactive)
CN(C)/N=C(/c1nc2ccc(Cl)cc2nc1O)C(O)c1ccc(C(O)/C(=N\N(C)C)c2nc3ccc(Cl)cc3nc2O)cc1 (stereo not drawn)	81.7 µM (inactive)	> 100 µM (inactive)	> 100 µM (inactive)	27.9 µM (inactive)	6.43 µM (inactive)	> 100 µM (inactive)	> 100 µM (inactive)	> 100 µM (inactive)	14.1 µM (inactive)	> 100 µM (inactive)	> 100 µM (inactive)	> 100 µM (inactive)	> 100 µM (inactive)	38 µM (inactive)	> 100 µM (inactive)	> 100 µM (inactive)	> 100 µM (inactive)	93.1 µM (inactive)	> 100 µM (inactive)	–
C(=C\Nc1ccc(Oc2ccccc2)cc1)/C=N/c1ccc(Oc2ccccc2)cc1	24.3 µM (inactive)	20 µM (inactive)	16.6 µM (inactive)	23.7 µM (inactive)	15.3 µM (inactive)	19.6 µM (inactive)	21 µM (inactive)	–	21.8 µM (inactive)	18.4 µM (inactive)	17.4 µM (inactive)	20 µM (inactive)	16.4 µM (inactive)	19.4 µM (inactive)	22.1 µM (inactive)	17.1 µM (inactive)	22.2 µM (inactive)	20.7 µM (inactive)	18.4 µM (inactive)	55.3 µM (inactive)
CCCCCCCC(=O)OCC1OC(n2cc(F)c(=O)[nH]c2=O)C(NC(=O)OCc2ccccc2)C(OC(=O)CCCCCCC)C1O (stereo not drawn)	23.2 µM (inactive)	20.2 µM (inactive)	23.5 µM (inactive)	16.5 µM (inactive)	17.5 µM (inactive)	39.2 µM (inactive)	29 µM (inactive)	19.5 µM (inactive)	16.6 µM (inactive)	42.5 µM (inactive)	30.1 µM (inactive)	26 µM (inactive)	35.3 µM (inactive)	16.7 µM (inactive)	25.1 µM (inactive)	17.9 µM (inactive)	41.4 µM (inactive)	71.8 µM (inactive)	0.106 µM (active)	–
CCOC(=O)c1csc(NC(=O)CCN2CCCCC2)n1	> 100 µM (inactive)	> 100 µM (inactive)	–	> 100 µM (inactive)	> 100 µM (inactive)	> 100 µM (inactive)	–	> 100 µM (inactive)	> 100 µM (inactive)	> 100 µM (inactive)	–	> 100 µM (inactive)	–	> 100 µM (inactive)	> 100 µM (inactive)	> 100 µM (inactive)	> 100 µM (inactive)	> 100 µM (inactive)	> 100 µM (inactive)	–
COc1cc(C)cc(OC)c1/C=C/C(=O)O	> 100 µM (inactive)	> 100 µM (inactive)	> 100 µM (inactive)	> 100 µM (inactive)	–	> 100 µM (inactive)	> 100 µM (inactive)	> 100 µM (inactive)	> 100 µM (inactive)	> 100 µM (inactive)	> 100 µM (inactive)	–	> 100 µM (inactive)	> 100 µM (inactive)	> 100 µM (inactive)	> 100 µM (inactive)	> 100 µM (inactive)	> 100 µM (inactive)	> 100 µM (inactive)	> 100 µM (inactive)
CCCOC1OC(CS(=O)(=O)O)C(O)C(O)C1O (stereo not drawn)	> 100 µM (inactive)	> 100 µM (inactive)	–	> 100 µM (inactive)	> 100 µM (inactive)	–	–	> 100 µM (inactive)	> 100 µM (inactive)	–	> 100 µM (inactive)	> 100 µM (inactive)	> 100 µM (inactive)	> 100 µM (inactive)	–	> 100 µM (inactive)	> 100 µM (inactive)	> 100 µM (inactive)	> 100 µM (inactive)	> 100 µM (inactive)

Reference: ChEMBL document CHEMBL1201862, “PubChem BioAssay data set” (2004)
